Data as given in US20230203060A1 (GENFLEET THERAPEUTICS (SHANGHAI) INC., priority 2020, published 2023).

Legend:
[1] = tested on: phosphorylated ERK downstream of KRAS G12C in MIA PaCa2 cells; test: Cell p-ERK detection experiment (HTRF) in MIA PaCa2; type: cell-based, human; settings: Homo sapiens, MIA PaCa-2, 2 h, MIA PaCa2 cells, 2 hours with compound, Advance ERK phospho-T202/Y204 HTRF kit; read-out: p-ERK IC50
How it was run: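 Phospho-ERK (T202/Y204) measured by HTRF after 30 min lysis and 4 h antibody incubation in MIA PaCa2 (KRAS G12C) cells, seeded at 2.5E4 per well and treated 2 h with compounds in 3.16-fold steps, final DMSO 0.1%. IC50 from a four-parameter fit of percent inhibition relative to DMSO and blank wells.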

KRAS G12C = target: T1, KRAS G12C (Homo sapiens, UniProt P01116, G12C); test: KRAS G12C NEA-HTRF experiment (SOS1-catalyzed displacement of GDP by GTP); type: biochemical
T1 construct: purchased Reactionbiology
T1 sequence (P01116 1-188 isoform P01116-2 G12C): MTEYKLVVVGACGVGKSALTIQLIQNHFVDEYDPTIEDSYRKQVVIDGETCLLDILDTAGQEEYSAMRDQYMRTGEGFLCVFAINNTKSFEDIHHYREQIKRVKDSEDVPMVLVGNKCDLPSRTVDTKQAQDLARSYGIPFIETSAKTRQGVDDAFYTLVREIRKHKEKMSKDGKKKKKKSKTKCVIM
How it was run: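 His-tagged KRAS G12C preloaded with DY647-GDP was preincubated 15 min at 20 °C with compound, then exchanged with SOS1 (0.2 μM working solution) and GTP (200 μM working solution) for 2 h at 20 °C in the dark. HTRF 665/615 nm ratio with anti-His-Tb was normalised to T0 and no-compound controls; IC50 by four-parameter fit.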

SMILES	IC50 [1]	IC50 (KRAS G12C)
C=CC(=O)N1CCN2C(=O)c3c(N4C[C@H](N5CCC5)CC4(C)C)nc(-c4ccccc4F)c(Cl)c3OC[C@H]2C1 (single isomer, unassigned) [Z471-2]	1080 nM	461 nM
C=CC(=O)N1CCN2C(=O)c3c(N4CC[C@@H](N(C)C)C4(C)C)nc(-c4ccccc4F)c(Cl)c3OC[C@H]2C1 [Z502-1, (6aR)-8-acryloyl-4-chloro-1-(3-(dimethylamino)-2,2-dimethylpyrrolidin-1-yl)-3-(2-fluorophenyl)-6,6a,7,8,9,10-hexahydro-12H-pyrazino[2,1-c]pyrido[3,4-f][1,4]oxazepin-12(6aH)-one]	196 nM	280 nM
C=CC(=O)N1CCN2C(=O)c3c(N4C[C@@H](N(C)CCF)CC4(C)C)nc(-c4ccccc4F)c(Cl)c3OC[C@H]2C1 (single isomer, unassigned) [Z660-1]	19 nM	11.3 nM
C=CC(=O)N1CCN2C(=O)c3c(N4C[C@H](N5CCN(C)CC5)CC4(C)C)nc(-c4c(F)cccc4Cl)c(Cl)c3OC[C@H]2C1 (single isomer, unassigned) [Z635-2]	55 nM	113 nM
C=CC(=O)N1CCN2C(=O)c3c(N4C[C@@H](N5CC(F)C5)CC4(C)C)nc(-c4ccccc4F)c(Cl)c3OC[C@H]2C1 [Z480-1, (R)-8-acryloyl-4-chloro-1-((S)-4-(3-fluoroazetidin-1-yl)-2,2-dimethylpyrrolidin-1-yl)-3-(2-fluorophenyl)-6,6a,7,8,9,10-hexahydro-12H-pyrazino[2,1-c]pyrido[3,4-f][1,4]oxazepin-12-one]	13 nM	17.9 nM
C=CC(=O)N1CCN2C(=O)c3c(N4CCN(C)[C@@H](C)[C@H]4C)nc(-c4ccccc4F)c(Cl)c3OC[C@H]2C1 (single isomer, unassigned) [Z465-1]	137 nM	144 nM
C=CC(=O)N1CCN2C(=O)c3c(N4C[C@H](N5CC(C#N)C5)CC4(C)C)nc(-c4ccccc4F)c(Cl)c3OC[C@H]2C1 (single isomer, unassigned) [Z637-1]	1120 nM	343 nM
C=CC(=O)N1CCN2C(=O)c3c(N4C[C@H](N5CC(C(F)(F)F)C5)CC4(C)C)nc(-c4ccccc4F)c(Cl)c3OC[C@H]2C1 (single isomer, unassigned) [Z608-1]	1220 nM	610 nM
C=CC(=O)N1CCN2C(=O)c3c(N4C[C@@H](N(C)CC(F)F)CC4(C)C)nc(-c4ccccc4F)c(Cl)c3OC[C@H]2C1 (single isomer, unassigned) [Z659-1]	249 nM	77.2 nM
C=CC(=O)N1CCN2C(=O)c3c(N4C[C@@H](N(C)C)CC4(C)C)nc(-c4c(F)ccc(F)c4O)c(Cl)c3OC[C@H]2C1 [Z475-1, (6aR)-8-acryloyl-4-chloro-3-(3,6-difluoro-2-hydroxyphenyl)-1-((S)-4-(dimethylamino)-2,2-dimethylpyrrolidin-1-yl)-6,6a,7,8,9,10-hexahydro-12H-pyrazino[2,1-c]pyrido[3,4-f][1,4]oxazepin-12-one]	35 nM	22.5 nM
C=CC(=O)N1CCN2C(=O)c3c(N4C[C@@H](N5CCN(C)CC5)CC4(C)C)nc(-c4ccccc4F)c(Cl)c3OC[C@H]2C1 (single isomer, unassigned) [Z454-1]	13 nM	9.3 nM
C=CC(=O)N1CCN2C(=O)c3c(N4C[C@H](N5CCN(C)CC5)CC4(C)C)nc(-c4c(O)cccc4F)c(Cl)c3OC[C@H]2C1 (single isomer, unassigned) [Z469-2]	30 nM	18 nM
C=CC(=O)N1CCN2C(=O)c3c(N4C[C@@H](N5CCN(C)CC5)CC4(C)C)nc(-c4ccccc4F)c(F)c3OC[C@H]2C1 (single isomer, unassigned) [Z474-1]	64 nM	89 nM

More lines, now with the values ahead:

IC50 [1]	IC50 (KRAS G12C)	SMILES
29 nM	32.9 nM	C=CC(=O)N1CCN2C(=O)c3c(N4CC(NC)CC4(C)C)nc(-c4ccccc4F)c(Cl)c3OC[C@H]2C1 (stereo partly drawn) [Z661, (6aR)-8-acryloyl-4-chloro-1-(2,2-dimethyl-4-(methylamino)pyrrolidin-1-yl)-3-(2-fluorophenyl)-6,6a,7,8,9,10-hexahydro-12H-pyrazino[2,1-c]pyrido[3,4-f][1,4]oxazepin-12-one]
	113 nM	C=CC(=O)N1CCN2C(=O)c3c(N[C@H](C)c4ccccc4)nc(-c4c(O)cccc4F)c(Cl)c3OC[C@H]2C1 [Z28, (6aR)-8-acryloyl-4-chloro-3-(2-fluoro-6-hydroxyphenyl)-1-(((R)-1-phenylethyl)amino)-6,6a,7,8,9,10-hexahydro-12H-pyrazino[2,1-c]pyrido[3,4-f][1,4]oxazepin-12-one]
37 nM	15 nM	C=CC(=O)N1CCN2C(=O)c3c(N4CC(N(C)CC(F)(F)F)CC4(C)C)nc(-c4ccccc4F)c(Cl)c3OC[C@H]2C1 (mixture of isomers) [Z491a, (6aR)-8-acryloyl-4-chloro-1-(2,2-dimethyl-4-(methyl(2,2,2-trifluoroethyl)amino)pyrrolidin-1-yl)-3-(2-fluorophenyl)-6,6a,7,8,9,10-hexahydro-12H-pyrazino[2,1-c]pyrido[3,4-f][1,4]oxazepin-12-one]
184 nM	298 nM	C=CC(=O)N1CCN2C(=O)c3c(N4CCN(C)[C@@H](C)[C@@H]4C)nc(-c4ccccc4F)c(Cl)c3OC[C@H]2C1 [Z653, (R)-8-acryloyl-4-chloro-3-(2-fluorophenyl)-1-((2S,3S)-2,3,4-trimethylpiperazin-1-yl)-6,6a,7,8,9,10-hexahydro-12H-pyrazino[2,1-c]pyrido[3,4-f][1,4]oxazepin-12 (6aH)-one]
135 nM	139 nM	C=CC(=O)N1CCN2C(=O)c3c(N4CCN(C)C[C@@H]4C)nc(-c4c(F)cccc4Cl)c(Cl)c3OC[C@H]2C1 [Z547, (6aR)-8-acryloyl-4-chloro-3-(2-chloro-6-fluorophenyl)-1-((S)-2,4-dimethylpiperazin-1-yl)-6,6a,7,8,9,10-hexahydro-12H-pyrazino[2,1-c]pyrido[3,4-f][1,4]oxazepin-12-one]
13 nM	42 nM	C=CC(=O)N1CCN2C(=O)c3c(N4C[C@@H](O)CC4(C)C)nc(-c4c(N)cccc4F)c(F)c3OC[C@H]2C1 [Z481, (6aR)-8-acryloyl-3-(2-amino-6-fluorophenyl)-4-fluoro-1-((S)-4-hydroxy-2,2-dimethylpyrrolidin-1-yl)-6,6a,7,8,9,10-hexahydro-12H-pyrazino[2,1-c]pyrido[3,4-f][1,4]oxazepin-12-one]
90 nM	105 nM	C=CC(=O)N1CCN2C(=O)c3c(N4CC(N5CCN(C)CC5)CC4(C)C)nc(-c4ccccc4F)c(F)c3OC[C@H]2C1 (stereo partly drawn) [Z474, (6aR)-8-acryloyl-1-(2,2-dimethyl-4-(4-methylpiperazin-1-yl)pyrrolidin-1-yl)-4-fluoro-3-(2-fluorophenyl)-6,6a,7,8,9,10-hexahydro-12H-pyrazino[2,1-c]pyrido[3,4-f][1,4]oxazepin-12-one]
	150 nM	C=CC(=O)N1CCN2C(=O)c3c(N4CCC[C@H]4C)nc(-c4c(O)cccc4F)c(Cl)c3OC[C@H]2C1 [Z48, (6aR)-8-acryloyl-1-((R)-2-methylpyrrolidin-1-yl)-4-chloro-3-(2-fluoro-6-hydroxyphenyl)-6,6a,7,8,9,10-hexahydro-12H-pyrazino[2,1-c]pyrido[3,4-f][1,4]oxazepin-12-one]
73 nM	142 nM	C=CC(=O)N1CCN2C(=O)c3c(N4CCN(C)C[C@@H]4C)nc(-c4c(O)cccc4F)c(Cl)c3OC[C@H]2C1 [Z51, (6aR)-8-acryloyl-4-chloro-1-((S)-2,4-dimethylpiperazin-1-yl)-3-(2-fluoro-6-hydroxyphenyl)-6,6a,7,8,9,10-hexahydro-12H-pyrazino[2,1-c]pyrido[3,4-f][1,4]oxazepin-12-one]
	9410 nM	C=CC(=O)N1CCN2C(=O)c3c(N4CCN(C)C[C@@H]4C)nc(C#CC)c(Cl)c3OC[C@H]2C1 [Z459, (R)-8-acryloyl-4-chloro-1-((S)-2,4-dimethylpiperazin-1-yl)-3-(prop-1-yn-1-yl)-6,6a,7,8,9,10-hexahydro-12H-pyrazino[2,1-c]pyrido[3,4-f][1,4]oxazepin-12-one]
140 nM		C=CC(=O)N1CCN2C(=O)c3c(N4CCC5CC54)nc(-c4c(O)cccc4F)c(Cl)c3OC[C@H]2C1 (stereo partly drawn) [Z39, (6aR)-8-acryloyl-1-(2-azabicyclo[3.1.0]hexart-2-yl)-4-chloro-3-(2-fluoro-6-hydroxyphenyl)-6,6a,7,8,9,10-hexahydro-12H-pyrazino[2,1-c]pyrido[3,4-f][1,4]oxazepin-12-one]
322 nM		C=CC(=O)N1CCN2C(=O)c3c(NC45CC(C4)C5)nc(-c4c(O)cccc4F)c(Cl)c3OC[C@H]2C1 [Z41, (6aR)-8-acryloyl-1-(bicyclo [1.1.1]pentan-1-ylamino)-4-chloro-3-(2-fluoro-6-hydroxyphenyl)-6,6a,7,8,9,10-hexahydro-12H-pyrazino[2,1-c]pyrido[3,4-f][1,4]oxazepin-12-one]
	331 nM	C=CC(=O)N1CCN2C(=O)c3c(N4CCN(C)C[C@@H]4C)nc(-c4ccccc4Cl)c(Cl)c3OC[C@H]2C1 [Z461, (R)-8-acryloyl-4-chloro-3-(2-chlorophenyl)-1-((S)-2,4-dimethylpiperazin-1-yl)-6,6a,7,8,9,10-hexahydro-12H-pyrazino[2,1-c]pyrido[3,4-f][1,4]oxazepin-12-one]
	171 nM	C=CC(=O)N1CCN2C(=O)c3c(OC4CCCN(C)C4)nc(-c4c(O)cccc4F)c(Cl)c3OC[C@H]2C1 (stereo partly drawn) [Z43, (6aR)-8-acryloyl-4-chloro-3-(2-fluoro-6-hydroxyphenyl)-1-((1-methylpiperidin-3-yl)oxy)-6,6a,7,8,9,10-hexahydro-12H-pyrazino[2,1-c]pyrido[3,4-f][1,4]oxazepin-12-one]
